Assay results reported in patent US9828350B2, “5,6-dihydro-2H-[1,4]oxazin-3-yl-amine derivatives useful as inhibitors of beta-secretase (BACE)” (Janssen Pharmaceutica NV, priority 2010, dated 2017).

Legend:
[1] = biological target: T1, P-gp (Homo sapiens, UniProt P08183); assay: Transepithelial transport of test compounds through LLC-MDR1 monolayers; type: in vitro ADME; settings: for Papp A→B at 120 min, 1 μM: read-out: A to B (Apparent Permeability, Papp); for Papp B→A at 120 min, 1 μM: read-out: B to A (Apparent Permeability, Papp)
T1 construct: expressed in transfected cells; host or cells: LLC-PK1 cells stably transduced with MDR1 (LLC-MDR1)
Procedure: Brief Assay Description for the Measurement of Transepithelial Transport of Test Compounds Through LLC-MDR1 Monolayers
The purpose of this assay was to assess both the in vitro passive permeability of test compounds and their ability to be transported substrates of P-gp using LLC-PK1 cells stably transduced with MDR1 in a trans-well system. The positive control for transport was ^3H-digoxin (30 nM) and the positive control inhibitor was GF120918 (5 μM). The marker compound for low permeability was ^14C-Mannitol (1 μM). The test compound concentration was 1 μM.
The integrity of the cellular monolayer was assessed in each incubation well through the inclusion of the fluorescent, low permeability marker compound, Fluorescein.
In detail, LLC-MDR1 cells were seeded on 24-well cell culture inserts (Millicell®-PCF, 0.4 μm, 13 mm diameter, 0.7 cm^2) at 400,000 cells/cm^2. Cell culture medium consisted of Medium 199 supplemented with 10% Foetal Bovine Serum (FBS) and 100 U/ml Penicillin/streptomycin and was replaced the day after seeding and the day before the experiment. The transport experiment was performed 5 days after seeding. On the day of the experiment, solutions of the test compounds were applied to the apical or basolateral side of the monolayers to assess transport in the A to B and B to A directions, respectively. The medium used in the assay was (OPTI-MEM (1×) (GIBCO) with 1 w/v % Bovine Serum Albumin. Inserts were incubated at 37° C. in a humidified incubator containing 5% CO2. Samples from the acceptor and donor compartments were collected after an incubation time of 120 min, to assess the permeability and to allow estimation of the test compound recovery during the experiment, respectively. Transport experiments were performed in triplicate. Absolute test compound concentrations were measured using LC-MS/MS and quantified via a calibration curve.

[2] = system: Abeta 1-42; assay: Cellular αLisa assay in SKNBE2 cells, Abeta 1-42; type: cell-based, human; settings: incubated for 18 hours; for IC50: Homo sapiens, SKNBE2, 18 h, read-out: Cellular αLisa assay in SKNBE2 cells Abeta 42 pIC50 (converted)
How it was run: (§1)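 Secreted Abeta levels were measured by sandwich αLisa, pairing biotin-AbN/25 donor beads with Ab4G8 acceptor beads for total Abeta or cAb42/26 for Abeta 1-42, read at 615 nm after 650 nm excitation following 1 hour. Cells were SKNBE2 expressing wild-type hAPP695, exposed to compound for 18 hours.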

[3] = biological target: recombinant BACE1 protein (Homo sapiens, UniProt P56817); assay: Biochemical FRET based assay; settings: recombinant BACE1 1 μg/ml, 120 minutes at room temperature, pH 5.0; for IC50: read-out: Biochemical FRET based assay pIC50 (converted)
How it was run: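 Proteolysis was read as the rise in donor fluorescence (320 nm excitation, 405 nm emission) from T0 to T120, expressed in RFU. The reaction ran 120 minutes at room temperature at pH 5.0 in citrate buffer with 4% DMSO, using […] quenched Swedish APP peptide and 1 μg/ml BACE1.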

[4] = system: Abeta total; assay: Cellular αLisa assay in SKNBE2 cells, Abeta total; type: cell-based, human; settings: incubated for 18 hours; for IC50: Homo sapiens, SKNBE2, 18 h, read-out: Cellular αLisa assay in SKNBE2 cells Abetatotal pIC50 (converted)
How it was run: as §1

[5] = system: Aβ42; assay: Demonstration of in vivo efficacy, brain Aβ42 lowering (ELISA); settings: mouse brain, 30 mpk
Description: (§2) To determine whether acute administration of an Aβ42 peptide lowering agent would reduce Aβ peptide levels in vivo, non-transgenic rodents, e.g. mice or rats were used. Animals treated with the Aβ peptide lowering agent were examined and compared to those untreated or treated with vehicle and brain levels of soluble Aβ42 and total Aβ were quantitated by standard techniques, for example, using ELISA.
(§3) A typical protocol for measuring Aβ42 lowering in vivo is shown but it is only one of many variations that could be used to optimize the levels of detectable Aβ. For example, Aβ peptide lowering compounds were formulated in 20% hydroxypropyl 3 cyclodextrin. The Aβ peptide lowering agents were administered as a single oral dose (p.o.) or a single subcutaneous dose (s.c.) to overnight fasted animals. After a certain time, usually 2 or 4 h (as indicated in Table 19), the animals were sacrificed and Aβ42 levels were analysed.
(§4) Blood was collected by decapitation and exsanguinations in EDTA-treated collection tubes. Blood was centrifuged at 1900 g for 10 minutes (min) at 4° C. and the plasma recovered and flash frozen for later analysis. The brain was removed from the cranium and hindbrain. The cerebellum was removed and the left and right hemisphere were separated. The left hemisphere was stored at −18° C. for quantitative analysis of test compound levels. The right hemisphere was rinsed with phosphate-buffered saline (PBS) buffer and immediately frozen on dry ice and stored at −80° C. until homogenization for biochemical assays.
(§5) Mouse brains from non-transgenic animals were resuspended in 8 volumes of 0.4% DEA (diethylamine)/50 mM NaCl containing protease inhibitors (Roche-11873580001 or 04693159001) per gram of tissue, e.g. for 0.158 g brain, add 1.264 ml of 0.4% DEA. All samples were homogenized in the FastPrep-24 system (MP Biomedicals) using lysing matrix D (MPBio #6913-100) at 6 m/s for 20 seconds. Homogenates were centrifuged at 221.300×g for 50 min. The resulting high speed supernatants were then transferred to fresh eppendorf tubes. Nine parts of supernatant were neutralized with 1 part 0.5 M Tris-HCl pH 6.8 and used to quantify Aβtotal and Aβ42.
(§6) To quantify the amount of Aβtotal and Aβ42 in the soluble fraction of the brain homogenates, Enzyme-Linked-Immunosorbent-Assays were used. Briefly, the standards (a dilution of synthetic Aβ1-40 and Aβ1-42, Bachem) were prepared in 1.5 ml Eppendorf tube in Ultraculture, with final concentrations ranging from 10000 to 0.3 pg/ml. The samples and standards were co-incubated with HRPO-labelled N-terminal antibody for Aβ42 detection and with the biotinylated mid-domain antibody 4G8 for Aβtotal detection. […] The plate was allowed to incubate overnight at 4° C. in order to allow formation of the antibody-amyloid complex. Following this incubation and subsequent wash steps the ELISA for Aβ42 quantification was finished by addition of Quanta Blu fluorogenic peroxidase substrate according to the manufacturer's instructions (Pierce Corp., Rockford, Ill.). A reading was performed after 10 to 15 min (excitation 320 nm/emission 420 nm).

[6] = system: Aβtotal; assay: Demonstration of in vivo efficacy, brain Aβtotal lowering (ELISA); settings: mouse brain, 30 mpk
Description: as §2, §3, §4, §5, §6
For Aβtotal detection, a Streptavidine-Peroxidase-Conjugate was added, followed 60 min later by an additional wash step and addition of Quanta Blu fluorogenic peroxidase substrate according to the manufacturer's instructions (Pierce Corp., Rockford, Ill.). A reading was performed after 10 to 15 min (excitation 320 nm/emission 420 nm).

T1 sequence (P08183 whole entry): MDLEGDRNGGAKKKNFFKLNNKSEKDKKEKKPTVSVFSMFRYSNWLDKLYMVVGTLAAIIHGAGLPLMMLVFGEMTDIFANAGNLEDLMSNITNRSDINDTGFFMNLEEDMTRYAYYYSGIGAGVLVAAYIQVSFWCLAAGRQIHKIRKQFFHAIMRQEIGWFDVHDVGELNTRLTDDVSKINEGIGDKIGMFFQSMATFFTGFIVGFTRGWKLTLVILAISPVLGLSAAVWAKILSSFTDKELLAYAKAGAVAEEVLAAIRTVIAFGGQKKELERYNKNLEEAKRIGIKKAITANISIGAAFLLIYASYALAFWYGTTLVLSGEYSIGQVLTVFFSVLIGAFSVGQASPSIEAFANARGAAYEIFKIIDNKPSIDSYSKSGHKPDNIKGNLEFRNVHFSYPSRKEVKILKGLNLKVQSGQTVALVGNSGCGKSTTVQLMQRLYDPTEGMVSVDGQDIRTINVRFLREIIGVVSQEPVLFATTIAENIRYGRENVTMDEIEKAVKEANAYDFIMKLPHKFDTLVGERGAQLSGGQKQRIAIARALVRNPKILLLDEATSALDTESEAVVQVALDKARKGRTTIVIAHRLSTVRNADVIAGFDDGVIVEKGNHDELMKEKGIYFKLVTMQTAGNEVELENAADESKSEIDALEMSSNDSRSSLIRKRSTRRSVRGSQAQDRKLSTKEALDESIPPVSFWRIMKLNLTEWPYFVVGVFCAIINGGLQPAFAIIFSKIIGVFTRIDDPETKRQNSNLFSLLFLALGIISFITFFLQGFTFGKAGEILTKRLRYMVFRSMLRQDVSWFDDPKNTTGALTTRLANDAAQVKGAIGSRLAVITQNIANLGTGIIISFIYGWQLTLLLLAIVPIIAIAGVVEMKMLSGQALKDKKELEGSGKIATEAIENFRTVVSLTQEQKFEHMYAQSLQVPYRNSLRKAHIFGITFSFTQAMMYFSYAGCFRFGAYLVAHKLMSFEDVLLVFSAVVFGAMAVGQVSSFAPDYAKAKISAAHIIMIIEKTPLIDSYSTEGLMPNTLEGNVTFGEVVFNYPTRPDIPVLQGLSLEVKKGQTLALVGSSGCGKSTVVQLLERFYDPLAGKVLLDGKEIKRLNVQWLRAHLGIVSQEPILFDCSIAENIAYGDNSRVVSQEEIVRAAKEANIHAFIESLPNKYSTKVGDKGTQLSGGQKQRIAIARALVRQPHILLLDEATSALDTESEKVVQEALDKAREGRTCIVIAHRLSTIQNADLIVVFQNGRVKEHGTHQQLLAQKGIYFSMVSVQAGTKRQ
Sequence of recombinant BACE1 protein (P56817 46-501): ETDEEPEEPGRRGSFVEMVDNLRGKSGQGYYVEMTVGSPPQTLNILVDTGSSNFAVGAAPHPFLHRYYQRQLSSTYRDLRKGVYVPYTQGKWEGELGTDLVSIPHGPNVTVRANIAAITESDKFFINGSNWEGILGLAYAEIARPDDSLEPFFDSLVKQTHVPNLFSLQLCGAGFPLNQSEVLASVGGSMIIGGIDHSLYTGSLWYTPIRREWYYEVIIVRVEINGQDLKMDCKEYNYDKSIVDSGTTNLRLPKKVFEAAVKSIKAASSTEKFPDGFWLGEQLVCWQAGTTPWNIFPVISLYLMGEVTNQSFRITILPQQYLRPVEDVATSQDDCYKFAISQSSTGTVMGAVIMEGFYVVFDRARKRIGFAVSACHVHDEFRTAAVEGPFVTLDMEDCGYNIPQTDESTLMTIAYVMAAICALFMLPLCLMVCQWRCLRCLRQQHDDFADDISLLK

Structure (SMILES)	A to B (Apparent Permeability, Papp) ([1]; LLC-MDR1 monolayers, 1 μM test compound, 120 minutes, apical to basolateral, absence of GF120918)	B to A (Apparent Permeability, Papp) ([1]; LLC-MDR1 monolayers, 1 μM test compound, 120 minutes, basolateral to apical)	BA/AB ([1]; LLC-MDR1 monolayers, ratio of B to A and A to B permeation rates)	Cellular αLisa assay in SKNBE2 cells Abeta 42 pIC50 [2]	Biochemical FRET based assay pIC50 [3]	Cellular αLisa assay in SKNBE2 cells Abetatotal pIC50 [4]	Aβ42 (% Ctrl)_Mean ([5]; s.c., 4 h)	Aβtotal (% Ctrl)_Mean ([6]; s.c., 4 h)	efflux ratio at 120 min, 1 μM ([1]; pig, LLC-PK1, LLC-MDR1 monolayers, ratio of B to A and A to B permeation rates, read-out: BA/AB)	Papp A→B at 120 min, 1 μM ([1]; pig, LLC-PK1)	Papp B→A at 120 min, 1 μM ([1]; pig, LLC-PK1)	IC50 [2]	IC50 [3]	IC50 [4]	Aβ42 (% Ctrl)_Mean ([5]; s.c., 2 h)	Aβtotal (% Ctrl)_Mean ([6]; s.c., 2 h)	Aβ42 (% Ctrl)_Mean ([5]; p.o., 4 h)	Aβtotal (% Ctrl)_Mean ([6]; p.o., 4 h)
CC1(c2cc(-c3cncnc3)c(F)cc2F)COCC(N)=N1 (single isomer, unassigned) [Compound 55]	9.5 ×10⁻⁶ cm/s	34.4 ×10⁻⁶ cm/s	3.6	6.89	5.55	6.99	88 % Ctrl	87 % Ctrl										
C[C@@]1(c2cc(-c3cncnc3)c(F)cc2F)N=C(N)CO[C@H]1F (single isomer, unassigned) [Compound 82, (S*,S*)-5-(2,4-difluoro-5-pyrimidin-5-ylphenyl)-6-fluoro-5-methyl-5,6-dihydro-2H-1,4-oxazin-3-amine]									2.3	10.5 ×10⁻⁶ cm/s	23.9 ×10⁻⁶ cm/s	251 nM	631 nM	245 nM	57 % Ctrl	44 % Ctrl		
CC1(c2cc(NC(=O)c3ccc(Cl)cn3)ccc2F)N=C(N)COC1F (single isomer, unassigned) [Compound 134]				8.39		8.42				8.9 ×10⁻⁶ cm/s	17.7 ×10⁻⁶ cm/s						27 % Ctrl	35 % Ctrl
COc1cnc(C(=O)Nc2ccc(F)c([C@@]3(C)N=C(N)CO[C@H]3C(F)(F)F)c2)cn1 [Compound 166, (2R,3R)—N-{3-[5-amino-3-methyl-2-(trifluoromethyl)-3,6-dihydro-2H-1,4-oxazin-3-yl]-4-fluorophenyl}-5-methoxypyrazine-2-carboxamide]										13.7 ×10⁻⁶ cm/s	13.6 ×10⁻⁶ cm/s	12.6 nM	50.1 nM	12.3 nM			50 % Ctrl	43 % Ctrl
C[C@]1(c2cc(NC(=O)c3ccc(C#N)cn3)ccc2F)N=C(N)CO[C@H]1C(F)(F)F [Compound 169]										10.5 ×10⁻⁶ cm/s	19 ×10⁻⁶ cm/s	6.92 nM	56.2 nM	6.76 nM			38 % Ctrl	39 % Ctrl
COc1cnc(C(=O)Nc2ccc(F)c([C@@]3(C4CC4)N=C(N)CO[C@@H]3F)c2)cn1 [Compound 216]										12 ×10⁻⁶ cm/s	12 ×10⁻⁶ cm/s			631 nM			45 % Ctrl	39 % Ctrl
